The source of these data is patent publication US8063096B2, “Spirocyclic 3-phenyl-3substituted-4-ketolactams and-lactones” (Bayer Cropscience AG, priority 2001, dated 2011).

Type in all cases: in vivo
Assay [1] deals with Myzus persicae. The experiment in a line: Test for persistency: Myzus persicae (root-systemic action). As to conditions: 4 ppm in soil, broad beans. The protocol: (§1) [table] To produce a suitable preparation of active compound, 1 part by weight of active compound is mixed with the stated amounts of solvent and emulsifier, and the concentrate is diluted with water to the desired concentration. The preparation of active compound is mixed intimately with the soil. The stated concentration refers to the amount of active compound per volume unit of soil (mg/l). The treated soil is filled into pots, and into these pots is planted pre-germinated broad beans. In this way, the active compound can be taken up from the soil into the roots of the plants and be transported into the leaves. After the stated number of days, peach aphids (Myzus persicae) are, in infection chambers, placed on the leaves. After the desired period of time, the kill in % is determined. 100% means that all aphids have been killed; 0% means that none of the aphids have been killed.

The subject of a further assay is Plutella xylostella. The assay can be described thus: Plutella test. The settings on record: 500 ppm active compound, cabbage leaves dipped. The protocol:
(§2) [table] To produce a suitable preparation of active compound, 1 part by weight of active compound is mixed with the stated amounts of solvent and emulsifier, and the concentrate is diluted with emulsifier-containing water to the desired concentration. Cabbage leaves (Brassica oleracea) are treated by being dipped into the preparation of active compound of the desired concentration and are populated with caterpillars of the diamondback moth (Plutella xylostella) while leaves are still moist. After the desired period of time, the kill in % is determined. 100% means that all caterpillars have been killed; 0% means that none of the caterpillars have been killed.

The next assay deals with Aphis gossypii. The assay can be described thus: Test for persistency: Aphis gossypii (root-systemic action). The settings on record: 4 ppm in soil, cotton. The protocol:
as §1, with “cotton at the cotyledon stage.” for “pre-germinated broad beans.”, “cotton” for “peach”, “(Aphis gossypii)” for “(Myzus persicae)”

Assay [2] relates to Setaria. The assay can be described thus: Post-emergence test, Setaria. As to conditions: post-emergence/greenhouse; 250 g of ai/ha; after three weeks. The protocol:
(§3) [table] To produce a suitable preparation of active compound, 1 part by weight of active compound is mixed with the stated amount of solvent, the stated amount of emulsifier is added and the concentrate is diluted with water to the desired concentration. Test plants of a height of 5-15 cm are sprayed with the preparation of active compound such that the particular amounts of active compound desired are applied per unit area. The concentration of the spray liquor is chosen such that the particular amounts of active compound desired are applied in 1000 l of water/ha. After three weeks, the degree of damage to the plants is rated in % damage in comparison to the development of the untreated control. The figures denote: • 0%=no effect (=like untreated control) • 100%=total destruction

Assay [3] relates to Alopecurus. The experiment in a line: Pre-emergence test, Alopecurus. The settings on record: pre-emergence/greenhouse; 250 g of ai/ha; after three weeks. The protocol: (§4) [table] To produce a suitable preparation of active compound, 1 part by weight of active compound is mixed with the stated amount of solvent, the stated amount of emulsifier is added and the concentrate is diluted with water to the desired concentration. Seeds of the test plants are sown in normal soil. After about 24 hours, the soil is sprayed with the preparation of active compound such that the particular amounts of active compound desired are applied per unit area. The concentration of the spray liquor is chosen such that the particular amounts of active compound desired are applied in 1000 l of water/ha. After three weeks, the degree of damage to the plants is rated in % damage in comparison to the development of the untreated control. The figures denote: • 0%=no effect (like untreated control) • 100%=total destruction

For assay [4], the system named is Echinochloa. The experiment in a line: Pre-emergence test, Echinochloa. As to conditions: pre-emergence/greenhouse; 250 g of ai/ha; after three weeks. The protocol: as §4
Assay [5] concerns Sugar beet. The assay can be described thus: Post-emergence test, Sugar beet. The settings on record: post-emergence/greenhouse; 250 g of ai/ha; after three weeks; crop. The protocol:
as §3

The subject of assay [6] is Avena fatua. The experiment in a line: Post-emergence test, Avena fatua. The settings on record: post-emergence/greenhouse; 250 g of ai/ha; after three weeks. The protocol: as §3
In assay [7] the test system is Sugar beet. The assay can be described thus: Pre-emergence test, Sugar beet. The settings on record: pre-emergence/greenhouse; 250 g of ai/ha; after three weeks; crop. The protocol: as §4
For assay [8], the system named is Setaria. The experiment in a line: Pre-emergence test, Setaria. As to conditions: pre-emergence/greenhouse; 250 g of ai/ha; after three weeks. The protocol: as §4
For assay [9], the system named is Echinochloa. The assay can be described thus: Post-emergence test, Echinochloa. As to conditions: post-emergence/greenhouse; 250 g of ai/ha; after three weeks. The protocol:
as §3

In assay [10] the test system is Alopecurus. The assay can be described thus: Post-emergence test, Alopecurus. The settings on record: post-emergence/greenhouse; 250 g of ai/ha; after three weeks. The protocol:
as §3

Assay [11] concerns Avena fatua. The experiment in a line: Pre-emergence test, Avena fatua. The settings on record: pre-emergence/greenhouse; 250 g of ai/ha; after three weeks. The protocol: as §4
In assay [12] the test system is Amaranthus. The experiment in a line: Pre-emergence test, Amaranthus. As to conditions: pre-emergence/greenhouse; 250 g of ai/ha; after three weeks. The protocol:
as §4

Assay [13] relates to Myzus persicae. The assay can be described thus: Myzus test (leaf dip, cabbage). The settings on record: 500 ppm active compound, cabbage leaves dipped. The protocol:
as §2, with “oleracea) which are heavily infested by peach aphids (Myzus persicae)” for “oleracea)”, “concentration.” for “concentration and are populated with caterpillars of the diamondback moth (Plutella xylostella) while leaves are still moist.”, “aphids” for “caterpillars”

Assay [14] relates to Sinapis. The assay can be described thus: Pre-emergence test, Sinapis. As to conditions: pre-emergence/greenhouse; 250 g of ai/ha; after three weeks. The protocol: as §4
Assay [15] relates to Sinapis. The experiment in a line: Post-emergence test, Sinapis. As to conditions: post-emergence/greenhouse; 250 g of ai/ha; after three weeks. The protocol:
as §3

Assay [16] relates to Amaranthus. The experiment in a line: Post-emergence test, Amaranthus. As to conditions: post-emergence/greenhouse; 250 g of ai/ha; after three weeks. The protocol:
as §3

A further assay relates to Phaedon cochleariae. The experiment in a line: Phaedon larvae test. As to conditions: 500 ppm active compound, cabbage leaves dipped. The protocol: as §2, with “with larvae” for “with caterpillars”, “the mustard beetle (Phaedon cochleariae)” for “the diamondback moth (Plutella xylostella)”, “all beetle larvae” for “all caterpillars”, “the beetle larvae” for “the caterpillars”

The test system of another assay is Meloidogyne incognita. The assay can be described thus: Meloidogyne test (gall formation on lettuce roots). As to conditions: 20 ppm active compound, nematicidal action by gall formation. The protocol: [table] To produce a suitable preparation of active compound, 1 part by weight of active compound is mixed with the stated amounts of solvent and emulsifier, and the concentrate is diluted with water to the desired concentration. Vessels are filled with sand, solution of active compound, Meloidogyne incognita egg/larvae suspension and lettuce seeds. The lettuce seeds germinate and the plants develop. On the roots, galls develop. After the desired period of time, the nematicidal action is determined in % by the formation of galls. 100% means that no galls have been found; 0% means that the number of galls on the treated plants corresponds to that of the untreated control.

As for `Cc1cc(Br)cc(Cl)c1C1(Cl)C(=O)NC2(CCOCC2)C1=O` (stereo not shown) [Ex. I-1-c-2], the “Kill rate in % after 7d” value in the assay with Myzus persicae [1] (infection after 7 d) is reported as 100%; in the assay with Myzus persicae [1] (infection after 21 d), 100%; in the assay on Myzus persicae [1] (infection after 35 d) it was 99%; with Plutella xylostella, 100%; in the assay with Aphis gossypii (infection after 7 d), 100%; in the assay with Aphis gossypii (infection after 21 d), 98^ %. Moreover, the “Kill rate in % after 7d” value with Aphis gossypii (infection after 35 d) is 98^ %.
For `CCc1cc(Br)cc(C)c1C1(Cl)C(=O)NC2(CCCOC2)C1=O` (stereo not shown) [Ex. I-1-b-12], the “% damage, Setaria” value in the assay on Setaria [2] and with Setaria [8] was 100% in each case. The “% damage, Alopecurus” value in the assay with Alopecurus [3] is recorded as 95%; with Alopecurus [10], 90%. In addition, the “% damage, Echinochloa” value in the assay on Echinochloa [4] and in the assay on Echinochloa [9] was 100% throughout. Further, the “% damage, Sugar beet” value in the assay with Sugar beet [5] and with Sugar beet [7] was 0% in each case. Moreover, the “% damage, Avena fatua” value in the assay with Avena fatua [6] and in the assay on Avena fatua [11] was 100% throughout.
For the compound `COC1CCC2(CC1)NC(=O)C(Cl)(c1c(C)cc(Br)cc1Cl)C2=O` (stereo not shown) [Ex. I-1-a-10], the “% damage, Amaranthus” value in the assay on Amaranthus [12] and in the assay with Amaranthus [16] was 80% in each case. Also, the “% damage, Setaria” value in the assay with Setaria [2] and in the assay with Setaria [8] was 100% throughout. Also, the “% damage, Alopecurus” value is on record as 100% with Alopecurus [3] and 90% with Alopecurus [10]. In addition, in the assay with Myzus persicae [13], the “Kill rate in % after 6d” value turned out to be 99%. Also, the “% damage, Echinochloa” value in the assay with Echinochloa [4] and in the assay with Echinochloa [9] was 100% in each case. Moreover, the “% damage, Avena fatua” value in the assay on Avena fatua [6] and in the assay on Avena fatua [11] was 90% in each case. Moreover, the “% damage, Sinapis” value in the assay with Sinapis [14] was 90%; with Sinapis [15], 80%.
On to `COC1CCC2(CC1)NC(=O)C(Cl)(c1c(Cl)cc(C)cc1Cl)C2=O` (stereo not shown) [Ex. I-1-a-6], for which the “% damage, Amaranthus” value with Amaranthus [12] amounted to 100%; in the assay with Amaranthus [16] it was 90%. Moreover, the “% damage, Setaria” value in the assay with Setaria [2] and with Setaria [8] was 100% each time. Further, the figures for the “% damage, Alopecurus” value in the assay with Alopecurus [3] and in the assay on Alopecurus [10] were 100% and 95%, respectively. For the same compound, the “Kill rate in % after 7d” value with Phaedon cochleariae is given as 100%. Further, the “% damage, Echinochloa” value was 95% in the assay with Echinochloa [4] and 100% with Echinochloa [9]. Moreover, the “% damage, Avena fatua” value in the assay with Avena fatua [6] and in the assay on Avena fatua [11] was 95% in each case. For the same compound, the “% damage, Sinapis” value in the assay with Sinapis [14] is recorded as 90%; in the assay with Sinapis [15], 80%.
For `CCc1cc(Br)cc(C)c1C1(Cl)C(=O)NC2(CCC(OC)CC2)C1=O` (stereo not shown) [Ex. I-1-a-26], the “% damage, Setaria” value in the assay on Setaria [2] was 100%. The “Kill rate in % after 7d” value in the assay with Phaedon cochleariae is 100%. Also, the “% damage, Sugar beet” value with Sugar beet [5] came out at 0%. Further, the “% damage, Avena fatua” value in the assay with Avena fatua [6] worked out at 100%. In addition, the “% damage, Sinapis” value in the assay with Sinapis [15] was 80%. Moreover, the “% damage, Echinochloa” value in the assay on Echinochloa [9] is given as 100%. In addition, in the assay with Alopecurus [10], the “% damage, Alopecurus” value is 100%.
As for `CCOC1CCC2(CC1)NC(=O)C(Cl)(c1c(C)cc(C)cc1C)C2=O` (stereo not shown) [Ex. I-1-a-4], the “% damage, Amaranthus” value stood at 100% in the assay with Amaranthus [12] and 90% with Amaranthus [16]. Also, the “% damage, Setaria” value with Setaria [2] and in the assay on Setaria [8] was 100% in each case. In addition, the “% damage, Alopecurus” value in the assay with Alopecurus [3] amounted to 100%; in the assay on Alopecurus [10], 95%. The “% damage, Echinochloa” value with Echinochloa [4] and in the assay on Echinochloa [9] was 100% in each case. In addition, the “% damage, Avena fatua” value in the assay with Avena fatua [6] turned out to be 95%; with Avena fatua [11], 90%. In addition, the “% damage, Sinapis” value in the assay with Sinapis [14] and in the assay with Sinapis [15] was 95% each time.
For `CCc1cc(Br)cc(Cl)c1C1(Cl)C(=O)NC2(CCC(OC)CC2)C1=O` (stereo not shown) [Ex. I-1-a-44], the “% damage, Setaria” value in the assay on Setaria [2] and with Setaria [8] was 100% each time. In addition, the “% damage, Alopecurus” value in the assay on Alopecurus [3] is on record as 100%; in the assay on Alopecurus [10], 95%. The “Kill rate in % after 6d” value in the assay with Myzus persicae [13] turned out to be 98%. Besides, the “% damage, Echinochloa” value in the assay on Echinochloa [4] and in the assay on Echinochloa [9] was 100% in each case. In addition, the “% damage, Sugar beet” value in the assay on Sugar beet [5] and in the assay on Sugar beet [7] was 0% throughout. Besides, the “% damage, Avena fatua” value with Avena fatua [6] and with Avena fatua [11] was 100% throughout. Further, the “% damage, Sinapis” value in the assay with Sinapis [14] is reported as 80%; in the assay with Sinapis [15] it was 70%.
Regarding `CCc1cc(Cl)cc(CC)c1C1(Cl)C(=O)NC2(CCC(OC)CC2)C1=O` (stereo not shown) [Ex. I-1-a-43], the “Kill rate in % after 14d” value with Meloidogyne incognita came out at 95%. For the same compound, the “% damage, Setaria” value in the assay on Setaria [2] and with Setaria [8] was 100% throughout. The figures for the “% damage, Alopecurus” value in the assay on Alopecurus [3] and in the assay with Alopecurus [10] were 95% and 90%, respectively. Also, the “Kill rate in % after 6d” value in the assay on Myzus persicae [13] is listed as 90%. For the same compound, the “% damage, Echinochloa” value in the assay on Echinochloa [4] and in the assay on Echinochloa [9] was 100% throughout. For the same compound, the “% damage, Sugar beet” value in the assay with Sugar beet [5] and in the assay on Sugar beet [7] was 0% in each case. Further, the “% damage, Avena fatua” value in the assay with Avena fatua [6] and with Avena fatua [11] was 100% throughout. Also, in the assay with Sinapis [15], the “% damage, Sinapis” value amounted to 70%.
